Data: patent US20250241944A1 (CALIFORNIA INSTITUTE OF TECHNOLOGY, priority 2023, published 2025)
Entries after “also recorded” stand apart in the source; their conditions may differ. Where two headings read alike, the source gives them in different places.

Key:
[1] = test system: WT Pseudomonas aeruginosa UCBPP-PA14; test: Antibiotic treatment assay with viable plate counts (percent survival / log killing); details: for log killing: OD500=2, chlorate 10 mM, tobramycin 31.25 μg/mL
[2] = test system: RPA (Riverside Pseudomonas aeruginosa) planktonic cultures; test: In vitro planktonic drug treatment, viable cell counts; assay type: cell-based; details: 24 h, ciprofloxacin 10 μg/mL, sodium chlorate 10 mM
[3] = test system: RPA Anar strain (AnarGHJI); details: 24 h
Description: (§1) All experiments used Luria-Bertani (LB; Difco) as the growth medium, supplemented with KNO3 as specified. Aerobic liquid cultures were incubated at 37° C. with shaking at 250 RPM. Anaerobic work was conducted in an anaerobic glove box with a 95% N2-5% H2 atmosphere, and anaerobic cultures were incubated at 37° C.
For in vitro planktonic drug treatment studies, overnight RPA cultures were grown aerobically in LB broth supplemented with 40 mM KNO3. […] Cell resuspensions were added to 96-well plates (150 μL per well), and one 96-well plate was incubated statically (not shaking) at 37° C. at ambient oxygen, while a duplicate 96-well plate was incubated statically at 37° C. under anoxia (anaerobic glove box). Drug treatments were incubated for 24 h, after which cultures were serially diluted for viable cell counts. Viable cell counts were performed by serially diluting samples in phosphate-buffered saline (PBS). […] After incubation at 37° C., colonies were counted to quantify colony-forming units (CFU) per milliliter for each culture. Percent survival was calculated for each condition by dividing CFU/mL values from a drug treated sample by the average CFU/mL value from control (no drug) samples and multiplying by 100. […]
For in vitro biofilm drug studies, agar block biofilm assays (ABBAs) were used. […] Viable cell counts and percent survival were calculated for ABBA samples as described above.

[4] = test system: RPA-infected chronic wounds
Description: A diabetic mouse model (db/db−/−) of chronic wounds that mimics chronic wounds in humans was used to investigate wound healing.
Wounds were treated daily between 10 and 40 days postwounding.
The quality of wound healing in treated mice was characterized by performing histological and immunofluorescence analyses on day 40 wounds (FIG. 18 Panel A).
To distinguish between and visualize the distribution of collagen I and collagen III in the granulation tissue, the wounds were also stained with Picrosirius Red (PSR). […] Collagen IV immunolabeling was used to show whether basal lamina under the epidermis was present, an important indicator of proper connectivity of the epithelium with the underlying dermis. […] Keratin 14/16 is a cytokeratin found in proliferating keratinocytes of the epidermis and is observed in the cytoplasm surrounding the nucleus.
Blood vessel development during wound healing is another indicator of proper healing. The number of microvessels present in the granulation tissue was quantified by immunolabeling the wound tissue with a-smooth muscle actin (aSMA), a protein that is present in the cells surrounding blood vessels.

[5] = test system: RPA-infected chronic wounds; details: diabetic mouse model, reference [227]; cited from earlier work
[6] = mammals lack Nar; cited from earlier work
P. aeruginosa biofilms = details: via Nar activity, reference [32]; cited from earlier work
[7] = humans; cited from earlier work
RPA aggregate biofilms = details: ABBA, 24 h; final 10 μg/mL ciprofloxacin, 10 mM sodium chlorate
Description: as §1
For in vitro biofilm drug studies, agar block biofilm assays (ABBAs) were used. Briefly, to set up ABBA, overnight RPA cultures were diluted to OD500=0.001 into cooled molten agar (44° C.) composed of LB with 5 mM KNO3 and 1% agar. Before the agar solidified, 500 μL of the cell-agar suspension was added to 2-mL Eppendorf tubes, after which samples were allowed to solidify. Eppendorf tubes were incubated at 37° C. for 24 h to allow cells to grow as aggregate biofilms suspended within the agar medium. After this growth incubation, ABBA samples were washed twice with 200 μL of PBS to remove cell growth that was not suspended within the agar. […] Drug treatments were incubated for 24 h at 37° C. To determine viable cell counts, ABBA samples were first homogenized by adding 300 μL of PBS to each sample and homogenizing on speed 3 with a Bio-Gen PRO200 Homogenizer (PRO Scientific).

[8] = five drugs of the study, hypoxic cultures
[9] = hypoxic conditions (static), 24 h, ciprofloxacin 1 μg/mL, ceftazidime 10 μg/mL
[10] = 24 h, hypoxic vs oxic conditions

With `CC(C)(O/N=C(\C(=O)N[C@@H]1C(=O)N2C(C(=O)[O-])=C(C[n+]3ccccc3)CS[C@H]12)c1csc(N)n1)C(=O)O` [ceftazidime] the “O2-dependence of efficacy (hypoxic compared to oxic)” value [1] was “does not exhibit O2-dependent efficacy”, the “reduction of the effective (lethal, toxic) ceftazidime dose by chlorate addition” value [1] was over 100 fold and the “capacity for synergy across drug classes” value [1, 8] was “do not”. For the same compound, the “synergy of chlorate-antibiotic combination” value ([1]; hypoxic conditions, 24 h) was “synergizing”, the “toxicity / killing of P. aeruginosa cultures (in words)” value ([1]; hypoxic conditions, 24 h) was “completely resistant; also recorded: remain viable” and the “ceftazidime concentrations to which P. aeruginosa is resistant” value ([1]; hypoxic cultures, 24 h, ceftazidime alone) was ≤ 1,000 μg/mL. The “toxicity / killing of P. aeruginosa cultures (in words)” value ([1]; oxic conditions, 24 h) was “completely resistant”.

With `[O-][Cl+2]([O-])O` [chlorate, sodium chlorate] the “susceptibility of planktonic cultures (in words)” value ([2]; anoxic (anaerobic glove box)) was “highly susceptible”, the “susceptibility of planktonic cultures (in words)” value ([2]; oxic (static, ambient oxygen)) was “highly tolerant” and the “susceptibility of Nar-lacking strain (in words)” value [3] was “highly resistant”. For the same compound, the “effectiveness at promoting wound healing, comparison between treatments” value ([4]; day 40) was “as effective as ciprofloxacin”, the “PSR staining: collagen I and collagen III in the granulation tissue” value ([4]; day 40 healed wounds) was “staining of both collagen I and collagen III” and the “collagen IV immunolabeling: basement membrane under the epithelium” value ([4]; day 40 healed wounds) was “formed a basement membrane”. For the same compound, the “aSMA immunolabeling: microvessels in the granulation tissue” value ([4]; day 40 wounds) was “showed microvessels”, the “quality of the wound tissue” value ([4]; day 40 wounds, histology) was “significantly improved” and the “healing of P. aeruginosa-infected chronic wounds by topical treatment” value [5] was “supports the healing”. The toxicity against mammals [6] was “low toxicity”, the “killing of O2-limited, antibiotic-tolerant biofilm populations” value (P. aeruginosa biofilms) was “kills” and the “estimated lethal oral dose” value [7] was 20-35 grams. The log killing ([1]; anoxic conditions (anaerobic glove box), 24 h) was about 2.5 log, the “toxicity / killing of P. aeruginosa cultures (in words)” value ([1]; anoxic conditions, 24 h) was “most effective; also recorded: some toxicity” and the “toxicity / killing of P. aeruginosa cultures (in words)” value ([1]; anoxic conditions, 24 h, listed as Chlorate) was “most toxic”. The “capacity for synergy across drug classes” value [1, 8] was “wide-ranging synergistic interactions; also recorded: broad capacity for synergy”, the log killing [1, 9] was 0.2 log and the “toxicity / killing of P. aeruginosa cultures (in words)” value ([1]; hypoxic conditions, 24 h) was “little-to-no killing; also recorded: remain viable”. For the same compound, the “toxicity / killing of P. aeruginosa cultures (in words)” value ([1]; hypoxic conditions, 24 h, listed as Chlorate) was “nontoxic” and the “toxicity / killing of P. aeruginosa cultures (in words)” value ([1]; oxic conditions, 24 h) was “nontoxic”.

For `O=C(O)c1cn(C2CC2)c2cc(N3CCNCC3)c(F)cc2c1=O` [ciprofloxacin], the “susceptibility of planktonic cultures (in words)” value ([2]; anoxic (anaerobic glove box)) was “highly susceptible”, the “susceptibility of planktonic cultures (in words)” value ([2]; oxic (static, ambient oxygen)) was “highly susceptible” and the “killing / susceptibility of aggregate biofilms (in words)” value (RPA aggregate biofilms) was “susceptible to ciprofloxacin but show greater survival than planktonic cells”. The “O2-dependence of efficacy (hypoxic compared to oxic)” value [1] was “substantially less toxic”, the log killing [1, 9] was about 1.5 log and the “synergy of chlorate-antibiotic combination” value ([1]; hypoxic conditions, 24 h) was “synergizing”.

In the case of `NC[C@H]1O[C@H](O[C@H]2[C@H](O)[C@@H](O[C@H]3O[C@H](CO)[C@@H](O)[C@H](N)[C@H]3O)[C@H](N)C[C@@H]2N)[C@H](N)C[C@@H]1O` [tobramycin], the “capacity for synergy across drug classes” value [1] was “do not”, the “synergy of chlorate-antibiotic combination” value [1] was “synergizing” and the “O2-dependence of efficacy (hypoxic compared to oxic)” value [1, 10] was “substantially less toxic”. For the same compound, the “toxicity / killing of P. aeruginosa cultures (in words)” value ([1]; anoxic conditions, 24 h) was “some toxicity”, the “toxicity / killing of P. aeruginosa cultures (in words)” value ([1]; oxic conditions, 24 h) was “most effective” and the “toxicity / killing of P. aeruginosa cultures (in words)” value ([1]; oxic conditions, 24 h, listed as Tobramycin) was “below our detection limit”.

For colistin, the “P. aeruginosa viability after colistin combined with tobramycin, ciprofloxacin or ceftazidime” value [1] was “below our detection limit”, the “O2-dependence of efficacy (hypoxic compared to oxic)” value [1, 10] was “only marginally less effective at killing hypoxic cultures” and the “capacity for synergy across drug classes” value [1, 8] was “wide-ranging synergistic interactions; also recorded: broad capacity for synergy”. For the same compound, the “synergy in antibiotic-antibiotic combinations” value ([1]; hypoxic conditions, 24 h) was “displays synergistic interactions; also recorded: synergized” and the “synergy of chlorate-antibiotic combination” value ([1]; hypoxic conditions, 24 h) was “synergizing”.
